Common to all, as to test: spectrophotometric oxidation assay at […] nm
Format in all cases: biochemical
What all share (details): 100 µM H2O2 co-substrate, copper-loaded enzyme, 100 mM sodium acetate pH 6.0, 30 °C; read-out: Km app

Assay [1] concerns the target T1, BaLPMO10A (Bacillus velezensis, UniProt A7Z541).
T1 construct: gene RBAM_017540; mature enzyme with native N-terminus; N-terminal SUMO tag cleaved, C-terminal 6xHis tag; pET-20b, E. coli BL21(DE3); copper-saturated

The target of assay [2] is T2, BaLPMO10A (Bacillus velezensis, UniProt A7Z541, I31V/E151D, form not given).
T2 construct: gene RBAM_017540; mature enzyme with native N-terminus; N-terminal SUMO tag cleaved, C-terminal 6xHis tag; pET-20b, E. coli BL21(DE3); copper-saturated

Assay [3] concerns the target T3, BaLPMO10A (Bacillus velezensis, UniProt A7Z541, V67L, form not given).
T3 construct: gene RBAM_017540; mature enzyme with native N-terminus; N-terminal SUMO tag cleaved, C-terminal 6xHis tag; pET-20b, E. coli BL21(DE3); copper-saturated

The target in assay [4] is T4, BaLPMO10A (Bacillus velezensis, UniProt A7Z541, V67L/E151D, form not given).
T4 construct: gene RBAM_017540; mature enzyme with native N-terminus; N-terminal SUMO tag cleaved, C-terminal 6xHis tag; pET-20b, E. coli BL21(DE3); copper-saturated

Results on one molecule are retold here after article PMC10218905, “Improving the Enzymatic Activity and Stability of a Lytic Polysaccharide Monooxygenase” (International Journal of Molecular Sciences, 2023).

The term Km denotes the concentration of substrate that gives half-maximal velocity.

Each structure is given as a SMILES string.

T4 sequence (A7Z541 entry or part of it V67L/E151D, form open): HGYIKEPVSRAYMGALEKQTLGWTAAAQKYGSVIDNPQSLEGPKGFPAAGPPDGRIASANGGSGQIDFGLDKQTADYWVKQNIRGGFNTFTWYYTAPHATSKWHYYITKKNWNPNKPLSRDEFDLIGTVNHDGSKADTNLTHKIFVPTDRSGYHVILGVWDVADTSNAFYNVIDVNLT
T1 sequence (A7Z541 entry or part of it): as the sequence (A7Z541 entry or part of it V67L/E151D, form open) above, with L40V, D124E counted along it
T3 sequence (A7Z541 entry or part of it V67L, form open): as the sequence (A7Z541 entry or part of it V67L/E151D, form open) above, with D124E counted along it
T2 sequence (A7Z541 entry or part of it I31V/E151D, form open): as the sequence (A7Z541 entry or part of it V67L/E151D, form open) above, with I4V, L40V counted along it

Take `COc1cccc(OC)c1O` [2,6-DMP, 2,6-Dimethoxyphenol]: the Km on BaLPMO10A [1] is 41.3 ± 7.33 mM; on BaLPMO10A [2], 95.5 ± 9.5 mM; at BaLPMO10A [3] it was 32.5 ± 3.6 mM; at BaLPMO10A [4] it was 33.5 ± 1.6 mM.
